Two molecules from patent US9713613B2, “Methods and compositions for the treatment of cancer and related hyperproliferative disorders” (priority 2007, dated 2017) can be followed below.

Assay [1] deals with endogenous SREBPs. Kind of assay: Luciferase reporter assay (pSRE-Luc, normalized by β-gal) in HEK293 cells. The format is cell-based, human. Details: Luc/Gal: dose or concentration left out as unconfirmed. How it is done: On day 0, HEK293 cells were plated out in triplicate at a density of 5×10^3/well onto a 96-well plate in a Dulbecco's modified Eagle's medium with 10% fetal bovine serum, 100 units/mL penicillin, and 100 μg/mL streptomycin sulfate. On day 2, the cells were transiently co-transfected with the following plasmids by using Lipofectamine reagent (Invitrogen): 0.4 μg/well pSRE-Luc (an SRE-1-driven luciferase reporter construct; Hua et al., 1995 J Biol Chem 270, 29422-7), and 0.1 μg/well a b-gal reporter in which the expression of β-gal is controlled by an actin promoter in a final volume of […]. After incubation for 5 hrs at 37° C., the cells were washed with phosphate-buffered saline and then incubated in 100 μl of Dulbecco's modified Eagle's medium with 10% lipid-depleted serum, […] penicillin, and 100 μg/mL streptomycin sulfate in the absence or presence of fatostatin A. After 20 hrs of incubation, the cells in each well were lysed with 20 μL of 1× Reporter Lysis Buffer (Promega), and aliquots were used for measurement of luciferase (10 μL) and β-galactosidase (10 μL) activities. For luciferase assay, photon production was detected as counts per second in a Wallac 1420 ARVOsx multilabel counter (PerkinElmer). For β-galactosidase assays, hydrolysis of O-nitrophenyl-β-D-galactosidase was measured after incubation for 0.5 h at 37° C. by a microplate reader at the wave length of 405 nm (Tecan). The luciferase activity (counts per second) was normalized by the activity of β-galactosidase (OD units). For overexpression of the N-terminal matured form of SREBP-1c, pCMV-SREBP-1c (1-436) was co-transfected with pSRE-Luc. pSRE-Luc and pCMV-SREBP-1c (1-436) were provided by J. L. Goldstein (University of Texas Southwestern Medical Center). […]
For orientation: In a reporter assay the amount or activity of a reporter protein is the signal.

The next assay relates to 3T3-L1 cells. As to the kind of experiment: adipogenesis assay (formation of oil droplets). Details: key: +: The analogues that completely inhibited the formation of oil droplets in cells were scored to be adipogenesis-inhibiting analogues. The format is cell-based, mouse. The settings on record: formation of oil droplets in cells. How it is done:
The adipogenesis assay was performed as described (Choi et al., 2003).

Assay [2] concerns endogenous SREBPs. Kind of assay: SREBP activation assay (pSRE-Luc luciferase reporter) in CHO-K1 cells. It counts as cell-based, Chinese hamster. The method, then: To confirm that fatostatin impairs the function of SREBPs, the ability of endogenous SREBPs to activate transcription of an SREBP-responsive reporter gene was measured in CHO-K1 cells in the presence or absence of fatostatin (FIG. 18A).
Luciferase reporter assay. On day 0, CHO-K1 cells were plated out onto a 96-well plate in medium A (a 1:1 mixture of Ham's F-12 medium and Dulbecco's modified Eagle's medium, with 5% fetal bovine serum, 100 units/mL penicillin, and 100 μg/mL streptomycin sulfate). On day 2, the cells were transiently co-transfected with pSRE-Luc (an SRE-1-driven luciferase reporter construct) (Hua et al., 1995) and pAc-β-gal (β-gal reporter in which the expression of β-gal is controlled by an actin promoter), using Lipofectamine reagent (Invitrogen). After incubation for 5 h, the cells were washed with phosphate-buffered saline (PBS), and then incubated, in the absence or presence of fatostatin, in medium B (a 1:1 mixture of Ham's F-12 medium and Dulbecco's modified Eagle's medium, with 5% lipid-depleted serum, 100 units/mL penicillin, 100 μg/mL streptomycin sulfate, […], and 50 mM sodium mevalonate). After 20 h of incubation, the cells in each well were lysed, and aliquots were used to measure luciferase and β-galactosidase activities. Luciferase activity was normalized by the activity of β-galactosidase. For overexpression of the N-terminal matured form of SREBP-1c, pCMV-SREBP-1c(1-436) was co-transfected with pSRE-Luc and pAc-β-gal.
Standard SREBP activation assays were performed on the exemplary compounds identified in Table 4 as per the method for Fatostatin A in Example 1. The ability of endogenous SREBPs to activate transcription of an SREBP-responsive reporter gene was measured in the presence or absence of compounds 45-55 and 19 (FIG. 28), compounds 56-61 and 19 (FIG. 29) and compounds 62-66 (FIG. 30) at 5 μM in CHOK1 cells. […] The inhibitory concentrations of compounds 53 (FIG. 31) and compounds 58 and 61 (FIG. 32) were determined.

Setting [3] is: entries 1, 19-34 (FIG. 16), None = 15.0759.

Turning to `CCCc1cc(-c2nc(-c3ccc(C)cc3)cs2)ccn1` [Compound 1, 2-propyl-4-(4-p-tolylthiazol-2-yl)pyridine], the “activation of the SRE-controlled luciferase reporter gene by endogenous SREBPs” value in the assay with endogenous SREBPs [1] (HEK293 cells, lipid-free serum, varied concentrations) is “decreased in a concentration dependent manner”. Also, the “ability of exogenously expressed mature form of SREBP-1 to activate the reporter gene” value in the assay on endogenous SREBPs [1] (HEK293 cells, pCMV-SREBP-1c + pSRE-Luc) is “failed to impair”. The Luc/Gal stood at 7.5537 in the assay on endogenous SREBPs [1] (setting [3]); 9.414 in the assay with endogenous SREBPs [1] (entries 1, 35-39 (FIG. 17), None = 18); 3.4437 in the assay with endogenous SREBPs [1] (entries 1, 40-44 (FIG. 17), None = 8.2181); 6.2297 in the assay on endogenous SREBPs [1] (entries 1-18 (FIG. 15), none = 9.4426). For the same molecule, the Inhibition of adipogenesis entry in the assay on 3T3-L1 cells was “+”. For the same molecule, the “activation of the SRE luciferase reporter gene by endogenous SREBPs” value with endogenous SREBPs [2] (CHO-K1 cells, lipid-free serum) is recorded as “decreased activation of the reporter gene”.

Broadly, the inhibition is how much of the control response was suppressed. Regarding `CCCc1cc(-c2nc(-c3ccc(NS(C)(=O)=O)cc3)cs2)ccn1` [Compound 19, N-(4-(2-(2-propylpyridin-4-yl)thiazol-4-yl)phenyl)methanesulfonamide], in the assay on endogenous SREBPs [1] (setting [3]), the Luc/Gal is reported as 4.1981. The Inhibition of adipogenesis result in the assay on 3T3-L1 cells is recorded as “+”. For the same molecule, the inhibition at 5 µM in the assay on endogenous SREBPs [2] (Cricetulus griseus, CHO-K1, 5 μM in CHOK1 cells) is about 45%.
